Earlier results as cited in patent publication US20250216408A1, “REAGENT COMBINATION AND METHOD FOR DETECTING TARGET IMMUNOSUPPRESSANT IN WHOLE BLOOD WITHOUT CENTRIFUGATION” (Shenzhen New Industries Biomedical Engineering co., Ltd., priority 2023, published 2025).

Tests used:
[1] = FK506 in plasma

Row | Structure (SMILES) | Share of drug in whole blood taken up by / present in / bound to red blood cells | Plasma protein binding rate [1]
1 | C=CC[C@@H]1/C=C(\C)C[C@H](C)C[C@H](OC)[C@H]2O[C@@](O)(C(=O)C(=O)N3CCCC[C@H]3C(=O)O[C@H](/C(C)=C/[C@@H]3CC[C@@H](O)[C@H](OC)C3)[C@H](C)[C@@H](O)CC1=O)[C@H](C)C[C@@H]2OC [FK506, tacrolimus] | 75%-80% | over 98%
2 | CO[C@H]1C[C@@H]2CC[C@@H](C)[C@@](O)(O2)C(=O)C(=O)N2CCCC[C@H]2C(=O)O[C@H]([C@H](C)C[C@@H]2CC[C@@H](O)[C@H](OC)C2)CC(=O)[C@H](C)/C=C(\C)[C@@H](O)[C@@H](OC)C(=O)[C@H](C)C[C@H](C)/C=C/C=C/C=C/1C [sirolimus] | 95% | 
